The inhibition is the change of the read-out against control, counted positive when it falls.

Consider ten compounds from patent US20150315188A1, “COMPOUNDS AND METHODS FOR TREATMENT OF HYPERTENSION” (MEDIVATION TECHNOLOGIES, INC., priority 2012, published 2015).

Holding throughout (parameters): purchased Milipore (Millipore)
For experiment [1], the target named is T1, Human adrenergic α2A receptor (Homo sapiens, UniProt P08913).
T1 sequence (P08913 1-465): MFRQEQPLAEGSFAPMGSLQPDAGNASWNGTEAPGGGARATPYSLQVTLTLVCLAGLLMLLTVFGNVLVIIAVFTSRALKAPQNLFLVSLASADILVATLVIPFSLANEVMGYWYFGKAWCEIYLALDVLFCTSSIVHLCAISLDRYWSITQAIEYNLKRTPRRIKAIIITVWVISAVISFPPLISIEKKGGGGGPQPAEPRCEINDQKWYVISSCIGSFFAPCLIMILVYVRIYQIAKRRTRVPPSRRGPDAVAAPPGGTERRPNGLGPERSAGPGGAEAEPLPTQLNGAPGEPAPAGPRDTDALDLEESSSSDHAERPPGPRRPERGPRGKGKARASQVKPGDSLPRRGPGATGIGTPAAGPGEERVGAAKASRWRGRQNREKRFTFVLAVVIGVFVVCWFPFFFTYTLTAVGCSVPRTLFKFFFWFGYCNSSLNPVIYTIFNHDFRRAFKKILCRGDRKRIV
As to the kind of experiment: Radioligand binding, adrenergic α2A (Protocol Group B). The following applies: Protocol Group B; for Percentage inhibition of ligand binding, Adrenergic α2A (0.1 μM) / inhibition at 0.1 µM: 0.1 μM compound; for Percentage inhibition of ligand binding, Adrenergic α2A (0.3 μM) / inhibition at 0.3 µM: 0.3 μM compound; for inhibition at 0.1 µM: read-out: Percentage inhibition of ligand binding, Adrenergic α2A (0.1 μM); for inhibition at 0.3 µM: read-out: Percentage inhibition of ligand binding, Adrenergic α2A (0.3 μM). The method, then:
To evaluate the activity of compounds in radioligand binding assays, Human adrenergic α2A receptor obtained from recombinant cell membrane from Milipore. Binding experiments were carried out in Tris-HCl buffer (50 mM Tris-HCl buffer, pH 7.4, 5 mM Mgcl2, 1 mM Cacl2, 0.2% BSA) as recommended by Milipore. Compounds were incubated with 2 nM [^3H]MK-912 for 60 min at 25° C. Non-specific binding was estimated in the presence of 10 μM Rauwolscine. Receptor proteins were harvested on 0.33% PEI(poly-ethylenemine) soaked GFC filter mat, the specifically bound [^3H]MK-912 were counted to determine total binding. Compounds were screened at various concentrations, using 1% DMSO as vehicle. percent inhibition of specific binding was determined. Biochemical assay results are presented as the percent Inhibition of specific binding in Table B1b, or estimated Ki values in Table B1c.

Experiment [2] has as its target T2, Human adrenergic α2B receptor (Homo sapiens, UniProt P18089).
T2 sequence (P18089 1-450): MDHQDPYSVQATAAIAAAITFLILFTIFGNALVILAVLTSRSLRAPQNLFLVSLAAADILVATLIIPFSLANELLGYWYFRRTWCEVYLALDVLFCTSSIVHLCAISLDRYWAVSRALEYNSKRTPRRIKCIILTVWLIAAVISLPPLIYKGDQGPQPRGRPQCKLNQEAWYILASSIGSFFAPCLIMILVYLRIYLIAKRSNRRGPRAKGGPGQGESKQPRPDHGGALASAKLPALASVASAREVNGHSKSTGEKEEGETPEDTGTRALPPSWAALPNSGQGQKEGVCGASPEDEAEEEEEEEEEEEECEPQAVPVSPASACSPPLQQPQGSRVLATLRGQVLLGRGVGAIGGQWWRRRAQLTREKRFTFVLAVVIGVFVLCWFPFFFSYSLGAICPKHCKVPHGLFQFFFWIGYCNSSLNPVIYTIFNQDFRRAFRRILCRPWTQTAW
As to the kind of experiment: Radioligand binding, adrenergic α2B (Protocol Group B). As to conditions: Protocol Group B; for Percentage inhibition of ligand binding, Adrenergic α2B (10 nM) / inhibition at 0.01 µM: 10 nM compound; for Percentage inhibition of ligand binding, Adrenergic α2B (10 nM): 0.01 µM; for Percentage inhibition of ligand binding, Adrenergic α2B (30 nM) / inhibition at 0.03 µM: 30 nM compound; for Percentage inhibition of ligand binding, Adrenergic α2B (30 nM): 0.03 µM; for Percentage inhibition of ligand binding, Adrenergic α2B (0.1 μM) / inhibition at 0.1 µM: 0.1 μM compound; for inhibition at 0.01 µM: read-out: Percentage inhibition of ligand binding, Adrenergic α2B (10 nM); for inhibition at 0.03 µM: read-out: Percentage inhibition of ligand binding, Adrenergic α2B (30 nM); for inhibition at 0.1 µM: read-out: Percentage inhibition of ligand binding, Adrenergic α2B (0.1 μM). The protocol: To evaluate the activity of compounds in radioligand binding assays, Human adrenergic α2B receptor obtained from recombinant cell membrane from Milipore. Binding experiments were carried out in Tris-HCl buffer (50 mM Tris-HCl buffer, pH 7.4, 5 mM Mgcl2, 1 mM Cacl2, 0.2% BSA) as recommended by Milipore. […] Non-specific binding was estimated in the presence of 10 μM Rauwolscine. […] Compounds were screened at various concentrations, using 1% DMSO as vehicle. Biochemical assay results are presented as the percent Inhibition of specific binding in Table B1b, or estimated Ki values in Table B1c.

For experiment [3], the target named is T3, Human adrenergic α1B receptor (Homo sapiens, UniProt P35368).
T3 sequence (P35368 1-520): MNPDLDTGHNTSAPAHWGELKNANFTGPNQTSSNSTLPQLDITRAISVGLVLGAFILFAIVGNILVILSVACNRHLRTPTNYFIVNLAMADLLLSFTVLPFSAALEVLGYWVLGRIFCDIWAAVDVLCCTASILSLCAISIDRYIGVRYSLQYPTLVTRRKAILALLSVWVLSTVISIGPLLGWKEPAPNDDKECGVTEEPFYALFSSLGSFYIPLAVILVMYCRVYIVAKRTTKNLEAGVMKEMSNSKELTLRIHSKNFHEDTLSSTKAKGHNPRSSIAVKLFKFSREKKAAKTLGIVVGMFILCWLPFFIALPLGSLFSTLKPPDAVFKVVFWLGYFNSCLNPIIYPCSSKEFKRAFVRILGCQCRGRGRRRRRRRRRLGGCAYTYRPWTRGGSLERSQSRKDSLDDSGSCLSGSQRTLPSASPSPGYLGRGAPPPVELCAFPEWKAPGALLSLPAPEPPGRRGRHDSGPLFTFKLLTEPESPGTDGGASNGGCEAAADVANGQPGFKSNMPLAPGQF
As to the kind of experiment: Radioligand binding, adrenergic α1B (Protocol Group B). The following applies: Protocol Group B; for Percentage inhibition of ligand binding, Adrenergic α1B (0.1 μM) / inhibition at 0.1 µM: 0.1 μM compound; for Percentage inhibition of ligand binding, Adrenergic α1B (0.3 μM) / inhibition at 0.3 µM: 0.3 μM compound; for inhibition at 0.1 µM: read-out: Percentage inhibition of ligand binding, Adrenergic α1B (0.1 μM); for inhibition at 0.3 µM: read-out: Percentage inhibition of ligand binding, Adrenergic α1B (0.3 μM). The protocol:
To evaluate the activity of compounds in radioligand binding assays, Human adrenergic α1B receptor obtained from recombinant cell membrane from Milipore. Binding experiments were carried out in Tris-HCl buffer (50 mM Tris-HCl buffer, pH 7.4, 10 mM Mgcl2, 1 mM EDTA) as recommended by Milipore. Compounds were incubated with 0.3 nM [^3H]Prazosin for 60 min at 25° C. Non-specific binding was estimated in the presence of 10 μM prazosin. Receptor proteins were harvested on 0.33% PEI(poly-ethylenemine) soaked GFC filter mat, the specifically bound [^3H]Prazosin were counted to determine total binding. Compounds were screened at various concentrations, using 1% DMSO as vehicle. percent inhibition of specific binding was determined. Biochemical assay results are presented as the percent Inhibition of specific binding in Table B1b, or estimated Ki values in Table B1c.

For `OC(Cn1c2c(c3cc(F)ccc31)C1CCCN1CC2)c1ccncc1` (stereo not shown) [compound 18, 2-(10-fluoro-2,3,5,6-tetrahydro-1H-indolizino[7,8-b]indol-7 (11cH)-yl)-1-(pyridin-4-yl)ethanol], in experiment [1], the “Percentage inhibition of ligand binding, Adrenergic α2A (0.1 μM)” value is reported as 12% and the “Percentage inhibition of ligand binding, Adrenergic α2A (0.3 μM)” value is 38%. Moreover, in experiment [2], the “Percentage inhibition of ligand binding, Adrenergic α2B (10 nM)” value (from here on “Percentage inhibition … (10 nM)”) stood at 54%; the “Percentage inhibition of ligand binding, Adrenergic α2B (30 nM)” value (from here on “Percentage inhibition … (30 nM)”) amounted to 81%; the “Percentage inhibition of ligand binding, Adrenergic α2B (0.1 μM)” value came out at 95%. Moreover, in experiment [3], the “Percentage inhibition of ligand binding, Adrenergic α1B (0.1 μM)” value worked out at 20% and the “Percentage inhibition of ligand binding, Adrenergic α1B (0.3 μM)” value was found to be 51%.
For `Cc1ccc2c(c1)c1c(n2CC(O)c2ccc(C(=O)N(C)C)nc2)CCN(C)C1` (stereo not shown) [compound 54, 5-(2-(2,8-dimethyl-3,4-dihydro-1H-pyrido[4,3-b]indol-5(2H)-yl)-1-hydroxyethyl)-N,N-dimethylpicolinamide], in experiment [1], the inhibition at 0.1 µM was -8% and the inhibition at 0.3 µM was -3%. Besides, in experiment [2], the inhibition at 0.01 µM was 15%, the inhibition at 0.03 µM stood at 43% and the inhibition at 0.1 µM worked out at 66%. In addition, in experiment [3], the inhibition at 0.1 µM was -5% and the inhibition at 0.3 µM turned out to be 8%.
As to `Cc1cc(F)cc2c3c(n(CC(C)(O)c4ccncc4)c12)CCN1CCCC31` (single isomer, unassigned) [77a], in experiment [1], the inhibition at 0.1 µM was determined as 3% and the “Percentage inhibition of ligand binding, Adrenergic α2A (0.3 μM)” value turned out to be 19%. For the same compound, in experiment [2], the inhibition at 0.01 µM was 12% and the “Percentage inhibition … (30 nM)” value was 30%. Moreover, in experiment [3], the “Percentage inhibition of ligand binding, Adrenergic α1B (0.1 μM)” value amounted to 7% and the “Percentage inhibition of ligand binding, Adrenergic α1B (0.3 μM)” value was found to be 32%.
For `OC(Cn1c2c(c3cc(Cl)ccc31)C1CCCN1CC2)c1ccncc1` (single isomer, unassigned) [143c], the “Percentage inhibition of ligand binding, Adrenergic α2A (0.1 μM)” value in experiment [1] is on record as 1%. Further, the “Percentage inhibition … (30 nM)” value in experiment [2] was 5%. The “Percentage inhibition of ligand binding, Adrenergic α1B (0.1 μM)” value in experiment [3] is on record as 9%.
Turning to `Cc1ccc2c(c1)c1c(n2CC(O)c2cccnc2)C(O)CN(C)C1` (stereo not shown) [compound 24, 5-(2-Hydroxy-2-pyridin-3-yl-ethyl)-2,8-dimethyl-2,3,4,5-tetrahydro-1H-pyrido[4,3-b]indol-4-ol], in experiment [1], the inhibition at 0.1 µM is -15% and the inhibition at 0.3 µM was found to be 4%. Also, in experiment [2], the inhibition at 0.01 µM is -25%, the inhibition at 0.03 µM is 0% and the inhibition at 0.1 µM amounted to 29%. Further, in experiment [3], the inhibition at 0.1 µM is -3% and the inhibition at 0.3 µM turned out to be 15%.
`Cc1cc(F)c2c(c1)c1c(n2CC(C)(O)c2cccnc2)CCN2CCCC12` (single isomer, unassigned) [79c]: in experiment [1], the “Percentage inhibition of ligand binding, Adrenergic α2A (0.1 μM)” value is −3% and the “Percentage inhibition of ligand binding, Adrenergic α2A (0.3 μM)” value is on record as −1%. For the same compound, in experiment [2], the “Percentage inhibition … (10 nM)” value is given as −6% and the “Percentage inhibition … (30 nM)” value was found to be 7%. Also, in experiment [3], the “Percentage inhibition of ligand binding, Adrenergic α1B (0.1 μM)” value is recorded as 1% and the “Percentage inhibition of ligand binding, Adrenergic α1B (0.3 μM)” value is listed as 6%.
With `CC(O)(Cn1c2c(c3cc(Cl)cc(F)c31)CN1CCCC1C2)c1ccncc1` (single isomer, unassigned) [86d], in experiment [1], the “Percentage inhibition of ligand binding, Adrenergic α2A (0.1 μM)” value was 7% and the “Percentage inhibition of ligand binding, Adrenergic α2A (0.3 μM)” value is recorded as 11%. Moreover, in experiment [2], the “Percentage inhibition … (10 nM)” value was 13% and the “Percentage inhibition … (30 nM)” value stood at 28%. In experiment [3], the “Percentage inhibition of ligand binding, Adrenergic α1B (0.1 μM)” value is on record as 3% and the “Percentage inhibition of ligand binding, Adrenergic α1B (0.3 μM)” value is on record as 13%.
Take `Cc1ccc2c(c1)c1c(n2CC(C)(O)c2ccc(N(C)C)nc2)CCN(C)C1` (stereo not shown) [compound 39, 1-(2,8-dimethyl-3,4-dihydro-1H-pyrido[4,3-b]indol-5(2H)-yl)-2-(6-(dimethylamino)pyridin-3-yl)propan-2-ol]: in experiment [1], the “Percentage inhibition of ligand binding, Adrenergic α2A (0.1 μM)” value turned out to be 17% and the “Percentage inhibition of ligand binding, Adrenergic α2A (0.3 μM)” value was determined as 19%. In addition, in experiment [2], the “Percentage inhibition … (10 nM)” value came out at 11%; the inhibition at 0.03 µM turned out to be 35%; the “Percentage inhibition of ligand binding, Adrenergic α2B (0.1 μM)” value is reported as 64%. Further, in experiment [3], the inhibition at 0.1 µM stood at 17% and the “Percentage inhibition of ligand binding, Adrenergic α1B (0.3 μM)” value is given as 34%.
Consider `Cc1cc(F)c2c(c1)c1c(n2CC(C)(O)c2cccnc2)CCN2CCCC12` (single isomer, unassigned) [79d], for which, in experiment [1], the “Percentage inhibition of ligand binding, Adrenergic α2A (0.1 μM)” value is listed as −7% and the “Percentage inhibition of ligand binding, Adrenergic α2A (0.3 μM)” value worked out at 5%. Moreover, in experiment [2], the “Percentage inhibition … (10 nM)” value is given as −7% and the “Percentage inhibition … (30 nM)” value was found to be 3%. Further, in experiment [3], the “Percentage inhibition of ligand binding, Adrenergic α1B (0.1 μM)” value is recorded as −4% and the “Percentage inhibition of ligand binding, Adrenergic α1B (0.3 μM)” value is recorded as 1%.
On to `Cc1cc(F)cc2c3c(n(CC(O)c4ccncc4)c12)CCN1CCCC31` (single isomer, unassigned) [136d], for which the “Percentage inhibition of ligand binding, Adrenergic α2A (0.1 μM)” value in experiment [1] is reported as −12%. In addition, in experiment [2], the “Percentage inhibition … (30 nM)” value is reported as −8%. Besides, in experiment [3], the “Percentage inhibition of ligand binding, Adrenergic α1B (0.1 μM)” value is −2%.
